# Data: paper PMC3284447, “In vivo antinociception of potent mu opioid agonist tetrapeptide analogues and comparison with a compact opioid agonist - neurokinin 1 receptor antagonist chimera” (Molecular Brain, 2012)
# Entries after “also recorded” stand apart in the source; their conditions may differ.
# What was measured:
# [1] = system: DOR; experiment: MVD (mouse vas deferens) tissue bioassay, DOR-representative; conditions: SBCHM01 compared to AN81, MVD EC50
# From the text: Aba: 4-amino-1,2,4,5-tetrahydro-2-benzazepin-3-on; BBB: blood-brain barrier; CNS: central nervous system; DML: designed multiple ligand; Dmt: 2',6'-dimethyl-(S)-tyrosine; DOR: δ-opioid receptor; GPI: Guinea pig ileum; KOR: κ-opioid receptor; MOR: μ-opioid receptor; MPE: maximal possible effect; MVD: mouse vas deferens; NK1: neurokinin 1.
# [2] = system: DOR; experiment: DOR binding, displacement of [^3H]DSLET from rat brain membranes; conditions: SBCHM01 compared to AN81, Ki
# [3] = system: male C57Bl6 mice; experiment: hot water tail-flick test, acute antinociception after i.v. administration; assay type: in vivo, mouse; conditions: i.v.; for %MPE: 120 min, ± SEM
# Method: (§1) Nociceptive responses to thermally-induced pain were assessed by the hot water tail-flick test using male C57Bl6 mice. Animals (weighing 25-28 g) were maintained on a normal light-dark cycle and testing occurred during the light cycle. Mice were injected intravenously (i.v.) with the examined drug, dissolved in saline, at different doses. For the verification of drug-induced antinociceptive tolerance, the investigated compounds were administered (i.v.) once per day for 5 days (2 and 4 mg/kg for SBCHM01 and 4 mg/kg for both AN81 and BVD03) and the analgesic effect was measured on the first and the fifth day of the experiment. In each case (both acute and chronic treatment) the effect was measured over a minimum time period of 120 minutes. The antinociceptive effect was measured in triplicate at the following time points post-injection: 5, 15, 30, 60, 120 min (and 180 min for SBCHM01; due to the strong and long-lasting analgesic effect produced by AN81 (Figure 2C), there was no possibility to prolong the experiment, which - if prolonged - could in consequence cause major damage to the animal's tail, thus giving spurious nociceptive responses). Responses to thermal hot stimulus were assessed by the latency with which the mouse removed its tail from 55°C water. A cut-off time of 10 s was used in order to prevent tissue damage.
# (§2) In order to compare the antinociceptive effect induced by the examined drugs, morphine was used as a standard reference.
# (§3) Data are presented as means ± standard errors of the mean (SEM). All of the calculations and statistical analysis were performed using Prism 5.0 (Graph Pad Software, San Diego, CA, USA). The nociceptive scores were analyzed using a two-way Anova with Bonferroni's post hoc test. The p value (the value of probability) as well as inferential statistics - F test, which include information about the obtained magnitude or value of the test statistic and degrees of freedom, are represented.
# [4] = system: male C57Bl6 mice; experiment: hot water tail-flick test, tolerance after daily i.v. administration for 5 days; assay type: in vivo, mouse
# Method: as §1, §2, §3
# [5] = system: NK1R; conditions: calculated using the Schild's equation; cited from earlier work
# From the text: Table 1 In vitro functional activities and affinities of opioid- and opioid-NK1 ligands | column: NK1R pA2^a
# [6] = biological target: hNK1R; conditions: [^3H]-SP, hNK1-CHO membranes; means ± SEM of three independent experiments; one site competition fitting; cited from earlier work
# From the text: Table 1 In vitro functional activities and affinities of opioid- and opioid-NK1 ligands | column: hNK1R Ki (nM)^b
# [7] = system: MOR; parameters: method as in PMID 21413804; conditions: GPI tissue bioassay; means of 3-6 experiments ± SEM; cited from earlier work
# [8] = system: DOR; parameters: method as in PMID 21413804; conditions: MVD tissue bioassay; means of 3-6 experiments ± SEM; cited from earlier work
# [9] = biological target: KOR; conditions: [^3H]U69,593, guinea pig brain membrane; cited from earlier work
# From the text: Table 1 In vitro functional activities and affinities of opioid- and opioid-NK1 ligands | column: KOR Ki (nM)^e, f
# [10] = biological target: MOR; parameters: method as in PMID 21413804; conditions: [^3H]DAMGO, rat brain membrane; cited from earlier work
# [11] = biological target: DOR; parameters: method as in PMID 21413804; conditions: [^3H]DSLET, rat brain membrane; cited from earlier work
# [12] = system: rodents; conditions: administered centrally or peripherally in rodents; cited from earlier work
# From the text: From our previous results, we selected three opioid tetrapeptides with promising in vitro potency for further in vivo evaluation. […] We recently identified the opioid ligands H-Dmt-NMe-D ...
# [13] = system: MOR; parameters: method as in PMID 8981054, PMID 7712029; conditions: cited from earlier work
Substance,fold decrease in DOR potency vs AN81 [1] [fold],fold decrease in DOR binding vs AN81 [2] [fold],"%MPE ([3]; 2 mg/kg, first day of treatment) [%]","%MPE ([3]; 4 mg/kg, vs morphine: BVD03 p < 0.05, SBCHM01 p > 0.05) [%]","antinociceptive activity relative to morphine ([3]; 4 mg/kg, whole period of measurements, morphine i.p. same dose)",synergistic or potentiating effect of combined pharmacophores ([3]; opioid and NK1 pharmacophores in a single entity),"tolerance development after repetitive administration ([4]; daily for 5 days, i.v. (morphine i.p.), measured on day 5)","%MPE ([4]; day 1, i.v., 2 mg/kg, 3 h, ± SEM) [%]","potency at 180 min ([4]; day 1, SBCHM01 2 mg/kg i.v., morphine 4 mg/kg i.p.)","antinociceptive activity on the fifth day ([4]; day 5, i.v., 2 mg/kg daily, up to 3 h)","%MPE ([4]; day 5, i.v., 4 mg/kg daily, 30 min, ± SEM (AN81 7-10 animals, p < 0.001; SBCHM01 8-10 mice)) [%]",NK1R pA2 [5],Ki [6] [nM],EC50 [7] [nM],EC50 [8] [nM],Ki [9] [nM],Ki [10] [nM],Ki [11] [nM],tolerance development compared to morphine [12],affinity and selectivity for the MOR [13]
"H-Dmt-D-Arg-Aba-Gly-NMe-3',5'-Bn(CF3)2 [SBCHM01]",103,17,85.12 ± 5.43,80.47 ± 5.29,slightly weaker during the whole period of measurements,neither an synergistic nor potentiating antinociceptive effect appears,could not circumvent opioid induced tolerance; also recorded: mice had developed opioid-induced tolerance; also recorded: lower dose of SBCHM01 does not reduce the extent of tolerance development; also recorded: complete loss in antinociception on the fifth day of the experiment; also recorded: lost its antinociceptive potency completely upon chronic injection,71.13 ± 4.71,decrease in potency is clearly visible,Complete abolishment of SBCHM01's antinociceptive activity on the fifth day,12.25 ± 7.33,7.8,0.5 ± 0.1,8.51 ± 0.62,43.3 ± 6.3,445 ± 81,0.416 ± 0.012,10.4 ± 0.6,,
H-Tyr-D-Ala-Phe-Gly-Tyr-Pro-Ser-NH2 [dermorphin],,,,,,,,,,,,,,,,,,,induces less tolerance development when compared to morphine,high affinity and selectivity for the MOR
